According to patent US20210127709A1, “FEED ADDITIVE COMPRISING A TRP MODULATOR” (PerformaNat GmbH, priority 2018, published 2021):

Tested on: ruminal epithelium
Experiment: Ussing chamber: transepithelial current and conductance
Type: cell-based
Conditions: sheep ruminal epithelium, mucosal addition, short-circuit mode, 37° C.
From the text: All sheep were slaughtered in accordance with German laws for the protection of animals. Removal of tissue occurred directly after death, was stripped and transported to the laboratory in a warm and gassed transport buffer.
The tissue was mounted into conventional Ussing chambers with an exposure area of 3.14 cm^2 (as described in (Martens and Gabel, 1988, Transport of Na and Cl across the epithelium of ruminant forestomachs: rumen and omasum. A review. Comparative Biochemistry and Physiology Part A: Physiology 90, 569-575)). The chambers contained 16 ml of mucosal and serosal buffer, which was circulated with a gas lift system and warmed to 37° C. with a water jacket.
After ten minutes the chambers were clamped to short circuit mode (Mussler Scientific Instruments, Aachen, Germany). Transepithelial current (Isc) and conductance (Gt) were measured continuously.
After an equilibration time of about 30 min under short-circuit conditions, the Ussing chambers were divided into two groups, depending on the transepithelial conductance of the tissues inside the chambers. Group 1 (TRP-group) and Group 2 (TRP-PG-group.)
Depending on the group 4.8 μl of TRP agonist combined with propylene glycol or 2.4 mg of TRP Agonist was added to the mucosal side of the tissues. Transepithelial current (Isc) and transepithelial conductance (Gt) were measured continuously. […]

Compound: CC1CCC(C(C)C)C(O)C1 (centres unmarked) [TRP (menthol), menthol]
- Transepithelial conductance (Gt), maximum increase after addition, mean: +0.563
- Transepithelial current (Isc), maximum increase after addition, mean: +0.727
